Assay results from the supplement of paper PMC10307832.

Experiments:
[1] = compound: C[C@@]1(C(=O)Nc2ccc(F)nc2)CCCN1c1nc(Nc2cc(C3CC3)n[nH]2)c2cccn2n1 + Cc1cc(Nc2cc(N3CCN(C)CC3)nc(Sc3ccc(NC(=O)C4CC4)cc3)n2)n[nH]1 [Tozasertib] (partner 0.1 µM); test: relative viability (nuclei count vs DMSO), 5 days (fraction); higher = more cells survive
Outline: (§1)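 Relative viability divides the nuclei count in treated wells by that in vehicle wells. Lung cancer cell lines were seeded in 1536-well plates, dosed by pin tool the next day, and fixed and stained after 5 days in one step with final 0.05% Triton X-100, 1% formaldehyde and 1 ug/ml Hoechst. Dosing was a single drug or a fixed anchor-drug dose plus five library-drug doses (not always all listed) in √10 steps, and values are medians of duplicate plates imaged at 4×.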

Motesanib + Foretinib = compound: CC1(C)CNc2cc(NC(=O)c3cccnc3NCc3ccncc3)ccc21 [Motesanib] + COc1cc2c(Oc3ccc(NC(=O)C4(C(=O)Nc5ccc(F)cc5)CC4)cc3F)ccnc2cc1OCCCN1CCOCC1 [Foretinib] (partner 0.25 µM); test: as above
Outline: as §1

| Cell Line | relative viability ([1]; first compound 0.04 µM) | relative viability ([1]; first compound 0.1265 µM) | relative viability ([1]; first compound 0.4 µM) | relative viability ([1]; first compound 1.265 µM) | relative viability (Motesanib + Foretinib; first compound 0.01 µM) | relative viability (Motesanib + Foretinib; first compound 0.03162 µM) | relative viability (Motesanib + Foretinib; first compound 0.3162 µM) | relative viability (Motesanib + Foretinib; first compound 1 µM) | relative viability (Motesanib + Foretinib; first compound 0.1 µM) |
| --- | --- | --- | --- | --- | --- | --- | --- | --- | --- |
| NCI-H1734 | 0.234 | 0.246 | 0.26 | 0.242 | 0.932 | 0.883 | 0.879 | 0.968 | – |
| NCI-H2126 | 0.677 | 0.366 | 0.441 | 0.337 | 1.13 | 1.12 | 1.31 | 1.11 | 1.17 |
| EMC-BAC-2 | 0.25 | 0.277 | 0.215 | 0.201 | 1.01 | 1.06 | 1.05 | 1.03 | 1.1 |
| NCI-H1993 | 0.556 | 0.502 | 0.55 | 0.549 | 0.861 | 0.829 | 0.777 | 0.881 | 0.812 |
| NCI-H520 | 0.48 | – | 0.442 | 0.423 | 0.857 | 0.79 | 0.851 | 0.948 | 0.922 |
| NCI-H647 | 0.543 | 0.217 | 0.159 | 0.123 | 1.21 | 1.14 | 1.25 | 1.14 | 1.21 |
| SK-LU-1 | 0.282 | 0.318 | 0.233 | 0.259 | 0.941 | 0.831 | 0.841 | 0.906 | 0.846 |
| ChaGo-K-1 | 0.209 | 0.197 | 0.201 | 0.207 | 0.933 | 0.894 | 1.1 | 1.01 | 0.861 |
| NCI-H2342 | 0.534 | 0.453 | 0.346 | 0.499 | 1.03 | 1.09 | 1.1 | 0.971 | 1.12 |
| NCI-H1299 | – | – | – | – | 1.06 | 1.11 | 1.16 | 1.12 | 1.11 |
| NCI-H1650 | 0.345 | 0.29 | 0.258 | 0.255 | 1.25 | 0.816 | 1.27 | 1.23 | 1.16 |
| NCI-H2009 | 0.779 | 0.693 | 0.598 | 0.519 | 1.23 | 1.21 | 1.22 | 1.21 | 1.23 |
| LOU-NH91 | 0.641 | 0.635 | 0.56 | 0.447 | 0.97 | 0.929 | 0.948 | 1.02 | 0.91 |
| NCI-H2405 | 0.659 | 0.65 | 0.5 | 0.409 | – | 1.01 | 1.07 | 1.08 | 1.06 |
| SW 900 | 0.525 | 0.551 | 0.464 | 0.29 | 0.824 | 0.9 | 0.887 | 0.874 | 1.36 |
| LCLC-97TM1 | 0.122 | 0.103 | 0.0881 | 0.126 | 0.948 | 0.968 | 0.919 | 0.979 | 0.976 |
| NCI-H596 | 0.883 | 0.748 | 0.683 | 0.71 | 0.817 | 0.818 | 0.656 | 0.806 | 0.98 |
| NCI-H727 | 0.525 | 0.355 | 0.352 | 0.379 | 0.707 | 0.98 | 1.09 | 0.883 | 0.854 |
| H3255 | 0.695 | 0.781 | 0.656 | 0.582 | 0.837 | 0.762 | 0.791 | 0.976 | 0.889 |
| SK-MES-1 | 0.979 | 0.968 | 0.8 | 0.207 | 0.949 | 0.963 | 0.945 | 0.86 | 0.982 |

| Cell Line | relative viability ([1]; first compound 0.04 µM) | relative viability ([1]; first compound 0.1265 µM) | relative viability ([1]; first compound 0.4 µM) | relative viability ([1]; first compound 1.265 µM) | relative viability (Motesanib + Foretinib; first compound 0.01 µM) | relative viability (Motesanib + Foretinib; first compound 0.03162 µM) | relative viability (Motesanib + Foretinib; first compound 0.3162 µM) | relative viability (Motesanib + Foretinib; first compound 1 µM) | relative viability (Motesanib + Foretinib; first compound 0.1 µM) |
| --- | --- | --- | --- | --- | --- | --- | --- | --- | --- |
| NCI-H1437 | 0.382 | 0.309 | 0.221 | 0.238 | 1.28 | 1.24 | 1.3 | 1.33 | 1.25 |
| NCI-H1648 | 0.449 | – | – | 0.336 | – | – | – | – | – |
| LU99A | 0.237 | 0.222 | 0.234 | 0.182 | 0.795 | 0.813 | 0.898 | 0.89 | 0.734 |
| NCI-H522 | 0.571 | 0.459 | 0.537 | 0.562 | – | – | – | – | – |
| HCC-827 | 0.443 | 0.491 | 0.373 | 0.42 | 0.963 | 1.09 | 1.08 | 1.03 | 1.02 |
| LK-2 | 0.178 | 0.169 | 0.187 | 0.175 | 1.21 | 1.08 | 1.27 | 1.31 | – |
| HCC-366 | 0.677 | 0.102 | 0.0503 | 0.637 | 0.955 | 0.932 | 0.883 | 1.02 | 0.952 |
| BEN | 0.551 | 0.529 | 0.517 | 0.501 | 0.627 | 0.55 | 0.572 | 0.992 | 0.739 |
| NCI-H23 | 0.382 | 0.269 | 0.316 | 0.516 | 0.952 | 0.718 | 1.38 | 0.933 | 0.892 |
| NCI-H1395 | 0.783 | 0.741 | 0.74 | 0.61 | 0.973 | 0.809 | 1.02 | 0.942 | 1.05 |
| A549 | – | – | – | – | 0.88 | 0.942 | 0.944 | 1.03 | 1.02 |
| 201T | 0.827 | 0.709 | 0.431 | 0.863 | 1.09 | 1.1 | 1.13 | 1.1 | 0.997 |
| NCI-H2170 | 0.671 | 0.791 | 0.636 | 0.559 | 1.01 | 1.03 | 0.952 | 0.982 | 0.955 |
| NCI-H460 | 0.525 | 0.487 | 0.26 | 0.136 | 0.942 | 0.966 | 1.01 | 1.04 | 1 |
| NCI-H661 | 0.37 | 0.345 | 0.369 | 0.338 | 0.998 | 1.1 | 1.13 | 0.9 | 0.991 |
| HCC-15 | 0.403 | 0.337 | 0.119 | 0.169 | 0.984 | 0.838 | 1.17 | 1.11 | 1.01 |
| NCI-H1563 | – | – | – | – | 0.904 | 0.899 | 0.909 | 0.889 | 0.915 |
| ABC-1 | 0.2 | 0.128 | 0.184 | 0.165 | 1.1 | 1.06 | 1.05 | 1.2 | 1.04 |
| LCLC-103H | 0.474 | 0.472 | 0.394 | 0.473 | 0.809 | 0.707 | 0.867 | 0.937 | 0.844 |
